Experimental data as given in paper PMC10914731, “Homo-BacPROTAC-induced degradation of ClpC1 as a strategy against drug-resistant mycobacteria” (Nature Communications, 2024).
Converted amounts (≈) assume the structure as drawn. “And” between values parts separate entries of the source, which are not always exact repeats. Equal values may be shown once. Read-outs that look alike come from different tables or passages of the source. Where a SMILES comes first, the peptide text is derived from it. [ ]: non-standard residue; d: D form. NMeLeu(5-OH,4R) = CN[C@@H](C[C@@H](C)CO)C(=O)O; Phe(βR-OMe) = CO[C@H](c1ccccc1)[C@H](N)C(=O)O; Trp(1-Me) = Cn1cc(C[C@H](N)C(=O)O)c2ccccc21; NMeL = CN[C@@H](CC(C)C)C(=O)O; Pra = C#CC[C@H](N)C(=O)O

Tests used:
[1] = assay type: in vitro ADME, Mice
Method in brief: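 Clearance values are expressed as % of liver blood flow, derived from first-order half-lives using the well-stirred liver model. Depletion of 1 µmol/l compound is followed by HPLC-MS/MS in NADPH-supplemented microsomes (0.5 mg/ml) at 37 °C, pH 7.5.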

[2] = system: M. tuberculosis H37Rv (ATCC 27294); test: microbe, parasite or virus in culture; assay type: cell-based
[3] = system: Msm 607; test: microbe, parasite or virus in culture; assay type: cell-based
[4] = system: Mtb # 11291; test: microbe, parasite or virus in culture; assay type: cell-based; settings: single well replicates
[5] = system: Mtb ATCC 35825; test: microbe, parasite or virus in culture; assay type: cell-based
[6] = system: Enterococcus faecium; test: MIC ESKAPES panel, Enterococcus faecium; assay type: cell-based
Method in brief: (§1)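 CLSI broth microdilution was run in Mueller Hinton broth with an inoculum of 3–7 × 10^5 cfu/ml at 37 °C. Turbidity was read on day 2; clear wells indicated growth inhibition.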

[7] = system: Staphylococcus aureus; test: MIC ESKAPES panel, Staphylococcus aureus; assay type: cell-based
Method in brief: as §1

[8] = system: Klebsiella pneumoniae; test: MIC ESKAPES panel, Klebsiella pneumoniae; assay type: cell-based
Method in brief: as §1

[9] = system: Mycobacterium avium; test: microbe, parasite or virus in culture; assay type: cell-based
[10] = system: Mycobacterium fortuitum; test: microbe, parasite or virus in culture; assay type: cell-based
[11] = system: Mycobacterium intracellulare; test: microbe, parasite or virus in culture; assay type: cell-based
[12] = system: Msm #607; test: Minimum bactericidal concentration (MBC), Msm #607; assay type: cell-based, Mycobacterium smegmatis; settings: Mycolicibacterium smegmatis
[13] = system: Mtb H37Rv; test: Minimum bactericidal concentration (MBC), Mtb H37Rv; assay type: cell-based, Mycobacterium tuberculosis; settings: Mycobacterium tuberculosis, H37RV
[14] = biological target: His6-tagged ClpC1-NTD substrate, M. smegmatis ClpC1P1P2 (UniProt A0R574+P9WPC9); test: biochemical; assay type: biochemical; settings: for % Response: ClpC1-NTD/ClpP1P2 peak area normalized to DMSO, well replicates; for DC50: Msm
Sequence of His6-tagged ClpC1-NTD substrate, M. smegmatis ClpC1P1P2 (P9WPC9 1-156, looked up, natural form): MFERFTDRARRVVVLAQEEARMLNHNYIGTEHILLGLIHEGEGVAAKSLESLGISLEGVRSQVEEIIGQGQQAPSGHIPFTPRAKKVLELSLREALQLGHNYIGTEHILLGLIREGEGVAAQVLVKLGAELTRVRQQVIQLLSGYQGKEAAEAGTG
Sequence of His6-tagged ClpC1-NTD substrate, M. smegmatis ClpC1P1P2 (A0R574 whole entry): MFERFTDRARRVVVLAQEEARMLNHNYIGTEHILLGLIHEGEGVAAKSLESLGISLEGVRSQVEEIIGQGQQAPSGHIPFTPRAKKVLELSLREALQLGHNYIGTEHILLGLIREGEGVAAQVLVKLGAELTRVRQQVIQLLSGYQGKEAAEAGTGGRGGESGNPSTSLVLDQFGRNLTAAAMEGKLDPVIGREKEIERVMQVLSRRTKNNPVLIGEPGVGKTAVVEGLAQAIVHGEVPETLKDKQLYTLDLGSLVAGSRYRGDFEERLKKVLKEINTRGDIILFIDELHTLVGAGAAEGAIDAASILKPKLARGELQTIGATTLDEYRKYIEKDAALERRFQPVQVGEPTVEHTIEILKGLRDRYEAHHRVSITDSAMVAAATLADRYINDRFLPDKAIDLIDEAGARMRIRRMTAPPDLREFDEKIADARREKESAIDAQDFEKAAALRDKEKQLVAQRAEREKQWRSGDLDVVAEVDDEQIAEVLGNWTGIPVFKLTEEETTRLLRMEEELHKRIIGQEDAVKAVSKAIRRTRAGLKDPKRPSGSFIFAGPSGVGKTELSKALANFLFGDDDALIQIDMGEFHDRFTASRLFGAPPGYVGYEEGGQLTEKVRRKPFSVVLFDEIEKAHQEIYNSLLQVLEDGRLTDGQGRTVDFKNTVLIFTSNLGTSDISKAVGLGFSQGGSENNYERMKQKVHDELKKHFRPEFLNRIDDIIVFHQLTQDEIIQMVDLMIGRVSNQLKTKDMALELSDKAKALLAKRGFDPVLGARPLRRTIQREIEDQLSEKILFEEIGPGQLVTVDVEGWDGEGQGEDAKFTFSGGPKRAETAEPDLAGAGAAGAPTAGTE

[15] = biological target: ClpC1-NTD substrate, M. tuberculosis ClpC1P1P2 (Mycobacterium tuberculosis, UniProt P9WPC9); test: biochemical; assay type: biochemical; settings: Mtb
Sequence of ClpC1-NTD substrate, M. tuberculosis ClpC1P1P2 (P9WPC5 whole entry): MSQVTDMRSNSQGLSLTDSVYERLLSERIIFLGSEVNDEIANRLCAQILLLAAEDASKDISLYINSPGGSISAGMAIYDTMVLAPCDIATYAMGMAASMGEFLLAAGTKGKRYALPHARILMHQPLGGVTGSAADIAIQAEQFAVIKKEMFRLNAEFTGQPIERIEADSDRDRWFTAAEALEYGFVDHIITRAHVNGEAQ
Sequence of ClpC1-NTD substrate, M. tuberculosis ClpC1P1P2 (P9WPC9 whole entry): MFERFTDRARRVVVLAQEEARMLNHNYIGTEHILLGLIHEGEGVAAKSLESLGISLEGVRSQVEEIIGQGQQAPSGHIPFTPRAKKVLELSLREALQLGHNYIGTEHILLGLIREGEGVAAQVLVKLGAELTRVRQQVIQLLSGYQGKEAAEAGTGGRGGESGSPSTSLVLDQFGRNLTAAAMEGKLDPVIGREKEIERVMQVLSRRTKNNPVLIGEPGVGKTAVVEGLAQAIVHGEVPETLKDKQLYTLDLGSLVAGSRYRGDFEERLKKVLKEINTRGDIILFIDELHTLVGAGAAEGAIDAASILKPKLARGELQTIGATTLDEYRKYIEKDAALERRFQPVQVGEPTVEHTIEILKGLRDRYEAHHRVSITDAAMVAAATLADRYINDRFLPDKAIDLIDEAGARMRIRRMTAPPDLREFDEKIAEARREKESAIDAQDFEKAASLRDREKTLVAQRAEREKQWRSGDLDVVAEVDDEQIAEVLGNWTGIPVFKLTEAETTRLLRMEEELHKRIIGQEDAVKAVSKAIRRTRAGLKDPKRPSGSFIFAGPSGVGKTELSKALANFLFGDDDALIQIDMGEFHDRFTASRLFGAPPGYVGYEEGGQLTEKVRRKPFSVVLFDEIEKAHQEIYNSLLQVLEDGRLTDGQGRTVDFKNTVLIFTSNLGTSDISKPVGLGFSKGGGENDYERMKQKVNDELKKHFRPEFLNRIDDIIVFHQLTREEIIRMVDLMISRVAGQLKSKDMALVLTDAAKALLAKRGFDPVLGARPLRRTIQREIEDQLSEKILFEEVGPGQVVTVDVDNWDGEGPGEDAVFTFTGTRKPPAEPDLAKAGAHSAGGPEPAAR
Sequence of ClpC1-NTD substrate, M. tuberculosis ClpC1P1P2 (P9WPC3 whole entry, further chain): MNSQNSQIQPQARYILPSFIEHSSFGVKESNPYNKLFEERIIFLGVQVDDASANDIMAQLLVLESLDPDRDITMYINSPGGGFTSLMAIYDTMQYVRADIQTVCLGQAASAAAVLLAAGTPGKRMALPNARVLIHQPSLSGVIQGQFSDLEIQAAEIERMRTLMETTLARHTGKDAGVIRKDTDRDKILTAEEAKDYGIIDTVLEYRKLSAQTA

[16] = system: replicating Mtb H37Rv cells; test: Resazurin growth assay, replicating Mtb H37Rv (Supplementary Fig. 2); assay type: cell-based, Mycobacterium tuberculosis; settings: three replicate columns
[17] = Gram-Positive Bacteria, replicates 1-3
[18] = Experiment 2, three replicate columns
[19] = mean of the measurements, read-out: DC50, Mean

C#CC[C@@H]1NC(=O)[C@H](CC(C)C)N(C)C(=O)[C@H](C(C)C)NC(=O)[C@H]([C@H](OC)c2ccccc2)NC(=O)[C@H](C)NC(=O)[C@H](C[C@@H](C)CO)N(C)C(=O)[C@H](Cc2cn(C)c3ccccc23)NC1=O [Compound 10] (cyclo(A[Phe(βR-OMe)]V[NMeL][Pra][Trp(1-Me)][NMeLeu(5-OH,4R)]))
Microsomal Stability Mouse QH ([1]; Mouse): >88.400% | Microsomal Stability Mice ([1]; clearance in microsomes): > 88 %Qh | MIC ([2]; M. tuberculosis H37Rv 27294, single well replicates, read-out: MIC): 3.125 µM (≈ 2.85 µg/mL) | MIC ([2]; Mycobacterium tuberculosis, M. tuberculosis H37Rv 27294, single well replicates, read-out: MIC): 3.12 µM (≈ 2.85 µg/mL) | MIC ([2]; Mycobacterium tuberculosis, M. tuberculosis H37Rv strain, read-out: MIC Mtb H37Rv Mean ± SD): 3.1 µM (≈ 2.83 µg/mL) | MIC ([2]; Mycobacterium tuberculosis, Mtb H37Rv (Supplementary Table 2), read-out: MIC Mtb): 3.1 µM (≈ 2.83 µg/mL) | MIC ([2]; Mycobacterium tuberculosis, Mtb H37Rv, mean ± SD, n = 3 well replicates, read-out: MIC): 3.1 µM (≈ 2.83 µg/mL) | MIC ([2]; Mycobacterium tuberculosis, Set 1, read-out: MIC (Mtb H37Rv) Set 1): 3.13 µM and 2.85 µg/mL | MIC ([2]; Mycobacterium tuberculosis, Set 2, read-out: MIC (Mtb H37Rv) Set 2): 3.13 µM and 2.85 µg/mL | MIC ([2]; Mycobacterium tuberculosis, Set 3, done at a different day than Set 1 and Set 2, read-out: MIC (Mtb H37Rv) Set 3): 3.13 µM and 2.85 µg/mL | MIC ([2]; Mycobacterium tuberculosis, individual example (Supplementary Table 11), read-out: MIC Mtb H37Rv): 3.1 µM and 2.9 µg/mL | MIC ([2]; Mycobacterium tuberculosis, individual measurements (source data), read-out: Mtb MIC): 3.12 µM (≈ 2.85 µg/mL) | MIC ([2]; Mycobacterium tuberculosis, mean of 3 experiments +/- SD, unit taken from the sets above in the same table, read-out: MIC data (Mtb H37Rv) (+/- SD)): 3.13 µM and 2.85 µg/mL | MIC ([2]; Mycobacterium tuberculosis, single determinations, read-out: Mtb MIC): 3.12 µM (≈ 2.85 µg/mL) | MIC ([2]; individual measurements (source data), read-out: Mtb MIC): 3.125 µM (≈ 2.85 µg/mL) | MIC ([3]; Mycolicibacterium smegmatis, 607, read-out: MIC Msm 607): 3.1 µM (≈ 2.83 µg/mL) | MIC ([3]; Mycolicibacterium smegmatis, 607, read-out: MIC Msm #607, individual example (Supplementary Table 11)): 6.3 µM and 5.7 µg/mL | MIC ([3]; Mycolicibacterium smegmatis, 607, read-out: Msm 607 MIC, single determinations): 3.12 µM (≈ 2.85 µg/mL) | MIC ([3]; Mycolicibacterium smegmatis, ATCC607, Set-1, read-out: MIC (Msm ATCC607) Set-1): 3.12 µM and 2.85 µg/mL | MIC ([3]; Mycolicibacterium smegmatis, ATCC607, Set-2, read-out: MIC (Msm ATCC607) Set-2): 6.25 µM and 5.71 µg/mL | MIC ([3]; Mycolicibacterium smegmatis, ATCC607, Set-3, done at a different day than Set 1 and Set 2, read-out: MIC (Msm ATCC607) Set-3): 3.12 µM and 2.85 µg/mL | MIC ([3]; Mycolicibacterium smegmatis, ATCC607, mean of 3 experiments ± SD, read-out: MIC including standard deviations (Msm ATCC607)): 4.16 µM and 3.8 µg/mL | MIC Mtb # 11291 [4]: 0.36 µg/mL (≈ 0.394 µM) | MIC ([4]; read-out: MIC Mtb # 11291): 0.39 µM (≈ 0.356 µg/mL) | MIC ([5]; Mycobacterium tuberculosis, ATCC35825, mean, n = 2 well replicates): 0.4 µM and 0.4 µg/mL | MIC ([5]; Mycobacterium tuberculosis, ATCC35825, single well replicates): 0.36 µg/mL and 0.39 µM | MIC ([5]; single well replicates): 0.39 µM (≈ 0.356 µg/mL) | MIC Mtb ATCC 35825 ([5]; single well replicates): 0.36 µg/mL (≈ 0.394 µM) | MIC ([6]; Enterococcus faecium, Gram positive, n = 3 well replicates): > 50 µM | MIC ([6]; Enterococcus faecium, Gram-Positive Bacteria, replicates 1-3): > 45.6 µg/mL | MIC [6, 17]: >50 µM | MIC [7, 17]: >50 µM | MIC ([7]; Staphylococcus aureus, Gram positive, n = 3 well replicates): > 50 µM | MIC ([7]; Staphylococcus aureus, Gram-Positive Bacteria, replicates 1-3): > 45.6 µg/mL | MIC ([8]; Gram-Negative Bacteria, replicates 1-3): >50 µM | MIC ([8]; Klebsiella pneumoniae, Gram negative, n = 3 well replicates): > 50 µM | MIC ([8]; Klebsiella pneumoniae, Gram-Negative Bacteria, replicates 1-3): > 45.6 µg/mL | MIC ([9]; Experiment 1, read-out: MIC Mycobacterium avium): 12.5 µM | MIC (µg/ml) Mycobacterium avium [9, 18]: 11.41 µg/mL (≈ 12.5 µM) | MIC ([9]; Experiment 2, three replicate columns, read-out: MIC (µM) Mycobacterium avium): 12.5 µM | MIC ([9]; Mycobacterium avium, Experiment 1, read-out: MIC Mycobacterium avium): 11.4 µg/mL | MIC ([9]; Mycobacterium avium, Experiment 2, three replicate columns, read-out: MIC (µM) Mycobacterium avium): 12.5 µM | MIC ([9]; Mycobacterium avium, Experiment 2, three replicate columns, read-out: MIC (µg/ml) Mycobacterium avium): 11.4 µg/mL | MIC ([9]; Mycobacterium avium, mean ± SD, read-out: MIC Mycobacterium avium): 12.5 µM | MIC ([10]; Experiment 1, read-out: MIC Mycobacterium fortuitum): 12.5 µM | MIC (µg/ml) Mycobacterium fortuitum [10, 18]: 11.41 µg/mL (≈ 12.5 µM) | MIC ([10]; Experiment 2, three replicate columns, read-out: MIC (µM) Mycobacterium fortuitum): 12.5 µM | MIC ([10]; Mycolicibacterium fortuitum, Experiment 1, read-out: MIC Mycobacterium fortuitum): 11.4 µg/mL | MIC ([10]; Mycolicibacterium fortuitum, Experiment 2, three replicate columns, read-out: MIC (µM) Mycobacterium fortuitum): 12.5 µM | MIC ([10]; Mycolicibacterium fortuitum, Experiment 2, three replicate columns, read-out: MIC (µg/ml) Mycobacterium fortuitum): 11.4 µg/mL | MIC ([10]; Mycolicibacterium fortuitum, mean ± SD, read-out: MIC Mycobacterium fortuitum): 12.5 µM | MIC ([11]; Experiment 1, read-out: MIC Mycobacterium intracellulare): 12.5 µM | MIC (µg/ml) Mycobacterium intracellulare [11, 18]: 11.41 µg/mL (≈ 12.5 µM) | MIC ([11]; Experiment 2, three replicate columns, read-out: MIC (µM) Mycobacterium intracellulare): 12.5 µM | MIC ([11]; Mycobacterium intracellulare, Experiment 1, read-out: MIC Mycobacterium intracellulare): 11.4 µg/mL | MIC ([11]; Mycobacterium intracellulare, Experiment 2, three replicate columns, read-out: MIC (µM) Mycobacterium intracellulare): 12.5 µM | MIC ([11]; Mycobacterium intracellulare, Experiment 2, three replicate columns, read-out: MIC (µg/ml) Mycobacterium intracellulare): 11.4 µg/mL | MIC ([11]; Mycobacterium intracellulare, mean ± SD, read-out: MIC Mycobacterium intracellulare): 12.5 µM | MBC ([12]; ATCC607, read-out: MBC (from Set 3) Msm ATCC 607): > 45.6 µg/mL and > 50 µM | MBC ([12]; read-out: MBC Msm #607, individual example): > 50 µM and > 45.7 µg/mL | MBC ([13]; read-out: MBC (from Set 3) Mtb H37Rv): 12.5 µM and 11.4 µg/mL | MBC ([13]; individual example, read-out: MBC Mtb H37Rv): 12.5 µM and 11.4 µg/mL | % Response ([14]; 0.4 µM): 107.165% and 105.713% and 105.534% and 109.793% and 112.635% and 106.598% and 107.262% and 106.323% and 113.228% | % Response ([14]; 33.3 µM): 86.4131% and 86.1435% and 98.0091% and 93.8962% and 86.1584% and 100.044% and 99.6955% and 103.875% and 103.346% | % Response ([14]; 100.0 µM): 86.569% and 107.836% and 89.4261% and 92.9238% and 99.5573% and 96.5131% and 88.7968% and 92.196% and 104.007% | DC50 ([14]; Measurement 1-6, read-out: DC50, single measurements): > 100 µM | DC50 [14, 19]: > 100 µM | degradation of the His6-tagged ClpC1-NTD substrate ([14]; cell-free, result in words): did not cause any degradation | DC50 ([15]; Measurement 1-4, read-out: DC50, single measurements): > 100 µM | DC50 [15, 19]: > 100 µM | Supplementary Figure 2 dose-response value, replicating H37Rv cells ([16]; Conc. 0.0488281 µM): 96.6607 and 85.0023 and 97.6783 | Supplementary Figure 2 dose-response value, replicating H37Rv cells ([16]; Conc. 0.0976562 µM): 91.646 and 99.7213 and 83.381 | Supplementary Figure 2 dose-response value, replicating H37Rv cells ([16]; Conc. 0.195312 µM): 93.9637 and 88.7594 and 93.2053 | Supplementary Figure 2 dose-response value, replicating H37Rv cells ([16]; Conc. 0.390625 µM): 95.6392 and 103.405 and 93.9985 | Supplementary Figure 2 dose-response value, replicating H37Rv cells ([16]; Conc. 0.78125 µM): 94.5519 and 83.8686 and 95.6043 | Supplementary Figure 2 dose-response value, replicating H37Rv cells ([16]; Conc. 1.5625 µM): 94.1959 and 100.812 and 95.4766 | Supplementary Figure 2 dose-response value, replicating H37Rv cells ([16]; Conc. 3.125 µM): 91.4989 and 87.2697 and 84.1472 | Supplementary Figure 2 dose-response value, replicating H37Rv cells ([16]; Conc. 6.25 µM): 90.8682 and 96.9509 and 92.2612 | Supplementary Figure 2 dose-response value, replicating H37Rv cells ([16]; Conc. 25 µM): 58.5243 and 57.8085 and 53.4206 | Supplementary Figure 2 dose-response value, replicating H37Rv cells ([16]; Conc. 50 µM): 10.7146 and 27.4379 and 10.7068 | Supplementary Figure 2 dose-response value, replicating H37Rv cells ([16]; Conc. 100 µM): 10.7533 and 7.29 and 10.5908
